Results reported in the supplement of paper PMC7840683.

Test system: HepaRG
Test: LDH release cytotoxicity, % of total lysis control; higher = more cytotoxic
Conditions: 48 h
Outline: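 Eight-point half-log series of test chemicals, the highest at 100 µM, were given in duplicate for 48 h to single-lot HepaRG cells on collagen I-coated 96-well plates in serum-free induction medium with 0.5% DMSO. A Tecan Safire read resorufin fluorescence from CytoTox-ONE as a measure of LDH in 50 µL spent medium, with 0.1% Triton X in total lysis wells. Percent cytotoxicity was normalized to on-plate vehicle and total lysis controls and averaged over the duplicates.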

Cc1ccc(N=CN(C)C=Nc2ccc(C)cc2C)c(C)c1 [Amitraz]
Conditions	LDH release cytotoxicity [%]
0.03162 µM	-0.945
0.1 µM	-1.23
0.3162278 µM	-2.67
1 µM	-1.98
3.16228 µM	-2.06
10 µM	-1.45
31.6228 µM	-0.79
100 µM	1.17

O=C(O)C1(C(=O)Nc2ccc(Cl)cc2Cl)CC1 [Cyclanilide]
Conditions	LDH release cytotoxicity [%]
0.03162 µM	0.835
0.1 µM	-0.444
0.3162278 µM	-0.309
1 µM	-1.03
3.16228 µM	-0.632
10 µM	0.531
31.6228 µM	2.66
100 µM	4.54

CN(C)C(=S)SSC(=S)N(C)C [Thiram]
Conditions	LDH release cytotoxicity [%]
0.03162 µM	-1.63
0.1 µM	-2.1
0.3162278 µM	-2.29
1 µM	-1.46
3.16228 µM	-2.28
10 µM	-1.86
31.6228 µM	-1.13
100 µM	2.802

COc1cc(-c2ccc(N)c(OC)c2)ccc1N [3,3'-Dimethoxybenzidine]
Conditions	LDH release cytotoxicity [%]
0.03162 µM	-2.67
0.1 µM	-2.03
0.3162278 µM	-2.61
1 µM	-2.72
3.16228 µM	-1.97
10 µM	-2.38
31.6228 µM	-2.12
100 µM	-0.532

CC(C)(O)C(=O)Nc1ccc([N+](=O)[O-])c(C(F)(F)F)c1 [Hydroxyflutamide]
Conditions	LDH release cytotoxicity [%]
0.01581 µM	-1.79
0.05 µM	-0.825
0.1581139 µM	-0.846
0.5 µM	-1.16
1.5811388 µM	-0.0206
5 µM	0.0482
15.8114 µM	-1.19
50 µM	2.46

Cc1c(-c2cccnc2)c2ccccc2n1CCCCC(=O)O
Conditions	LDH release cytotoxicity [%]
0.03162 µM	-1.92
0.1 µM	-0.948
0.3162278 µM	-2.28
1 µM	-1.9
3.16228 µM	-1.67
10 µM	-1.54
31.6228 µM	-1.64
100 µM	4.56

Fc1ccccc1C(F)COC1CCC(Nc2[nH]cnc3nncc2-3)CC1 (centres undefined) [MK-968]
Conditions	LDH release cytotoxicity [%]
0.03162 µM	-1.09
0.1 µM	-1.55
0.3162278 µM	-2.19
1 µM	-2.2
3.16228 µM	-2.43
10 µM	-2.42
31.6228 µM	1.23
100 µM	10.8

Clc1ccc(Cl)cc1 [1,4-Dichlorobenzene]
Conditions	LDH release cytotoxicity [%]
0.03162 µM	-0.401
0.1 µM	-1.22
0.3162278 µM	-1.55
1 µM	-0.354
3.16228 µM	-0.734
10 µM	-0.586
31.6228 µM	0.224
100 µM	5.07

CCCCCc1ccc(N)cc1 [4-Pentylaniline]
Conditions	LDH release cytotoxicity [%]
0.03162 µM	-0.0179
0.1 µM	-1.43
0.3162278 µM	-0.689
1 µM	-0.976
3.16228 µM	-0.886
10 µM	-0.634
31.6228 µM	-0.209
100 µM	1.34

CSC(=O)c1cccc2nnsc12 [Acibenzolar-S-methyl]
Conditions	LDH release cytotoxicity [%]
0.03162 µM	-0.11
0.1 µM	-0.574
0.3162278 µM	-0.682
1 µM	-0.324
3.16228 µM	-0.302
10 µM	-0.414
31.6228 µM	0.737
100 µM	1.4

CC1(C)C(=O)N(Br)C(=O)N1Br [1,3-Dibromo-5,5-dimethylhydantoin]
Conditions	LDH release cytotoxicity [%]
0.03162 µM	-0.925
0.1 µM	-0.284
0.3162278 µM	-0.732
1 µM	-1.11
3.16228 µM	-0.698
10 µM	0.338
31.6228 µM	-0.0587
100 µM	0.735

Cc1cc(C)c(O)c(C)c1 [2,4,6-Trimethylphenol]
Conditions	LDH release cytotoxicity [%]
0.03162 µM	-0.941
0.1 µM	-0.527
0.3162278 µM	-0.0601
1 µM	-1.16
3.16228 µM	-0.619
10 µM	-0.296
31.6228 µM	0.116
100 µM	0.371

O=C(Nc1ccccc1-c1ccc(Cl)cc1)c1cccnc1Cl [Boscalid]
Conditions	LDH release cytotoxicity [%]
0.0332039 µM	-0.385
0.105 µM	-0.471
0.332039 µM	-0.417
1.05 µM	-1.35
3.32039 µM	-1.2
10.5 µM	-0.348
33.2039 µM	-0.586
105 µM	0.89

CC(C)N(Cc1ccccc1)C(=O)C(C)(C)C [Butam]
Conditions	LDH release cytotoxicity [%]
0.03162 µM	-0.681
0.1 µM	-1.54
0.3162278 µM	-1.1
1 µM	-0.413
3.16228 µM	-0.189
10 µM	0.285
31.6228 µM	0.032
100 µM	0.934

Oc1cccc(O)c1 [Resorcinol]
Conditions	LDH release cytotoxicity [%]
0.03162 µM	-0.658
0.1 µM	-1.17
0.3162278 µM	-0.864
1 µM	-1.17
3.16228 µM	-2.41
10 µM	-0.6
31.6228 µM	-0.357
100 µM	2.31

CCCSP(=O)(OCC)Oc1ccc(Br)cc1Cl (centres undefined) [Profenofos]
Conditions	LDH release cytotoxicity [%]
0.01581 µM	-6.81
0.05 µM	-6.73
0.1581139 µM	-6.46
0.5 µM	-6.51
1.5811388 µM	-6.7
5 µM	-7.47
15.8114 µM	-7.49
50 µM	-6.78

CCCN(CCC)c1c([N+](=O)[O-])cc(C(C)C)cc1[N+](=O)[O-] [Isopropalin]
Conditions	LDH release cytotoxicity [%]
0.03162 µM	-0.731
0.1 µM	-1.48
0.3162278 µM	-2.92
1 µM	-1.36
3.16228 µM	-1.98
10 µM	-1.28
31.6228 µM	-1.55
100 µM	-0.986

ClCCOCCCl [Bis(2-chloroethyl) ether]
Conditions	LDH release cytotoxicity [%]
0.03162 µM	-2.26
0.1 µM	-1.98
0.3162278 µM	-2.69
1 µM	-2.69
3.16228 µM	-1.96
10 µM	-2.12
31.6228 µM	-2.25
100 µM	-0.123
